Experimental data taken from patent US10570164B2, “Steviol glycosides, their compositions and their purification” (The Coca-Cola Company, priority 2013, dated 2020).

Tests used:
[1] = tested on: panelists; assay: Taste evaluation: sweetness enhancement of 30 ppm added to 8% sucrose beverage against sucrose controls; assay type: in vivo, human; conditions: for sweetness enhancement: 30 ppm compound added to beverage containing 8% sucrose, citric acid/sodium citrate buffer; for increase in isosweetness provided by the compound: 30 ppm compound in beverage with 8% (w/v) sucrose; for isosweetness of beverage containing sucrose and compound: beverage with 8% (w/v) sucrose and 30 ppm compound, isosweet sucrose solution
Description: (§1) Solutions were made by dissolving all ingredients in treated water. For citric acid buffer, citric acid and potassium citrate were added in a sufficient amount to bring the pH to 3.2. Finished products were filled in 300 ml glass bottles and stored in the refrigerator and tasted the following day.
(§2) Beverages in citric acid/sodium citrate buffer were kept at 4° C. in the refrigerator and tasted the following day. Four panelists evaluated the beverages. Bottles were removed from the refrigerator and about 20 ml of beverage poured in 2 oz. plastic cups. Panelists were instructed not to swallow the samples and additional cups were provided to spit the sample in. Mineral water was given for palate rinsing before tasting and between tasting different samples.
Sweetness enhancement of rebaudioside N and rebaudioside O was evaluated by adding 30 ppm to a solution of 8% sucrose in citric acid/sodium citrate buffer (pH 3.2). The new solutions were then evaluated for their overall sweetness against three controls of 8%, 9%, and 10% sucrose in citric acid/sodium citrate buffer solutions (pH 3.2).

[2] = tested on: panelists; assay: Taste evaluation: overall sweetness of 30 ppm solutions against sucrose controls (sweetness recognition threshold); assay type: in vivo, human; conditions: for sweetness recognition threshold: lowest concentration perceivable by the human sense of taste; for sucrose equivalence / isosweetness of a solution of the compound alone: solution containing 30 ppm compound, no additional sweetener, isosweet sucrose solution
Description: as §1, §2
To evaluate 30 ppm of rebaudioside N and rebaudioside O for overall sweetness, panelists were provided solutions of 1%, 1.5%, and 2% sucrose in citric acid/sodium citrate buffer as controls. All panelists determined the overall sweetness of 30 ppm of rebaudioside N and rebaudioside O solutions in citric acid/sodium citrate buffer to fall between 1% and 1.5% sucrose controls. Accordingly, 30 ppm was determined to be the sweetness recognition threshold concentration for both compounds.

For `C=C1C[C@@]23CCC4[C@](C)(C(=O)OC5OC(CO)C(O)C(OC6OC(CO)C(O)C(O)C6O)C5OC5OC(C)C(O)C(O)C5O)CCC[C@@]4(C)[C@@H]2CC[C@]1(OC1OC(CO)C(O)C(OC2OC(CO)C(O)C(O)C2O)C1OC1OC(CO)C(O)C(O)C1O)C3` (stereo partly drawn) [Compound (2f), 13-[(2-O-β-D-glucopyranosyl-3-O-β-D-glucopyranosyl-β-D-glucopyranosyl)oxy]ent-kaur-16-en-19-oic acid-[(2-O-α-D-rhamnopyranosyl-3-O-β-D-glucopyranosyl-β-D-glucopyranosyl)ester]], the sweetness enhancement [1] was 2.5-3.0%, the “increase in isosweetness provided by the compound” value [1] was 2.5-3.0 % (w/v) and the “isosweetness of beverage containing sucrose and compound” value [1] was 10.5-11.0 % (w/v). The sweetness recognition threshold [2] was “about 30 ppm” and the “sucrose equivalence / isosweetness of a solution of the compound alone” value [2] was 1.0-1.5 % (w/v).

`C=C1C[C@@]23CCC4[C@](C)(C(=O)OC5OC(CO)C(O)C(OC6OC(CO)C(O)C(O)C6O)C5OC5OC(C)C(O)C(OC6OC(CO)C(O)C(O)C6O)C5O)CCC[C@@]4(C)[C@@H]2CC[C@]1(OC1OC(CO)C(O)C(OC2OC(CO)C(O)C(O)C2O)C1OC1OC(CO)C(O)C(O)C1O)C3` (stereo partly drawn) [Compound (2g), 13-[(2-O-β-D-glucopyranosyl-3-O-β-D-glucopyranosyl-β-D-glucopyranosyl)oxy]ent-kaur-16-en-19-oic acid-[(2-O-(3-O-β-D-glucopyranosyl-α-D-rhamnopyranosyl)-3-O-β-D-glucopyranosyl-β-D-glucopyranosyl)ester]] was tested, and the sweetness enhancement [1] was “about 2.0%”, the “overall sweetness of beverage against sucrose controls” value ([1]; 30 ppm compound and 8% sucrose in citric acid/sodium citrate buffer (pH 3.2), 8%, 9%, 10% sucrose controls) was about 10% and the “increase in isosweetness provided by the compound” value [1] was 2.0 % (w/v). The “isosweetness of beverage containing sucrose and compound” value [1] was 10.0 % (w/v), the sweetness recognition threshold [2] was “about 30 ppm” and the “sucrose equivalence / isosweetness of a solution of the compound alone” value [2] was 1.0-1.5 % (w/v).
